The record followed here is patent US20240190854A1, “PYRIMIDINE OR PYRIDINE DERIVATIVES USEFUL AS HCN2 MODULATORS” (King's College London, priority 2021, published 2024).

One may read the IC50 as the concentration at which inhibition is half-maximal. As usually defined, the efflux ratio is the permeability from basolateral to apical divided by that in the opposite direction, in the common usage.

Where a name gives a salt, the structure may show the parent alone. A value given as a limit tells only on which side of the number the result lay.

The target in one data set is HCN1 (Homo sapiens (Human), UniProt O60741). Description: HCN1 current assay using PatchXpress 7000A. The format is cell-based. As to conditions: PatchXpress protocol; read-out: PX HCN1 IC50. The procedure: Example 126A, Using PatchXpress 7000A
Solutions for recording HCN currents were:
The membrane voltage was then stepped back to −30 mV for a further 8 seconds.
The peak inward current measured at the end of the pulse to −110 mV (HCN1 and HCN2) or −130 mV (HCN4) was measured and any leak current subtracted to calculate the HCN current. The HCN current amplitude was measured after each control or compound addition and normalized to the control amplitude (Control A).
All experiments were performed at room temperature (approximately 22° C.).
Each test compound concentration was applied to the cell for seven (7) minutes, at which point the next cumulative concentration was applied.

For a further data set, the target named is HCN4 (Homo sapiens (Human), UniProt Q9Y3Q4). Kind of data set: HCN4 current assay using PatchXpress 7000A. The format is cell-based. Particulars: PatchXpress protocol; read-out: PX HCN4 IC50. Put shortly:
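Peak inward current taken at end of a −130 mV pulse, leak-subtracted, and normalized to the control amplitude. Cumulative concentrations applied for 7 min each at room temperature (approximately 22° C.) on an automated patch-clamp platform.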

A further data set concerns the target HCN2 (Homo sapiens (Human), UniProt Q9UL51). Description: HCN2 current assay using PatchXpress 7000A. It is filed as cell-based. As to conditions: PatchXpress protocol; read-out: PX HCN2 IC50. The method, boiled down:
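Automated patch clamp (PatchXpress 7000A) at about 22° C. HCN current taken as leak-subtracted peak inward current at the end of a step to −110 mV, with a return to −30 mV for 8 seconds. Cumulative concentrations applied 7 minutes each; amplitude normalised to control.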

For another data set, the target named is hERG channel (Homo sapiens (Human), UniProt Q12809). Kind of data set: hERG assay using IonWorks Quattro. It is filed as cell-based. As to conditions: IonWorks protocol; read-out: IW hERG IC50. The procedure: Example 127A, Using IonWorks Quattro
Solutions for recording hERG currents were:
This was followed by a […] step of is to −30 mV to evoke the hERG tail current. This sequence was repeated 5 times at a frequency of 0.25 Hz (see FIG. 3). Currents were measured from the tail step at the 5th pulse and referenced to the holding current. Compounds were then incubated for 6-7 minutes prior to a second measurement of the hERG signal using an identical pulse train.
A general note: Block of hERG is tested as a sign of cardiac risk.

The target of another data set is hNav1.5 (Homo sapiens (Human), UniProt Q14524).
In the next data set the target is MDR1 (P-glycoprotein) (Homo sapiens (Human), UniProt P08183). Description: in vitro. As to conditions: dog, MDCK-MDR1, pH 7.4.
Sequence of MDR1 (P-glycoprotein) (P08183 whole entry): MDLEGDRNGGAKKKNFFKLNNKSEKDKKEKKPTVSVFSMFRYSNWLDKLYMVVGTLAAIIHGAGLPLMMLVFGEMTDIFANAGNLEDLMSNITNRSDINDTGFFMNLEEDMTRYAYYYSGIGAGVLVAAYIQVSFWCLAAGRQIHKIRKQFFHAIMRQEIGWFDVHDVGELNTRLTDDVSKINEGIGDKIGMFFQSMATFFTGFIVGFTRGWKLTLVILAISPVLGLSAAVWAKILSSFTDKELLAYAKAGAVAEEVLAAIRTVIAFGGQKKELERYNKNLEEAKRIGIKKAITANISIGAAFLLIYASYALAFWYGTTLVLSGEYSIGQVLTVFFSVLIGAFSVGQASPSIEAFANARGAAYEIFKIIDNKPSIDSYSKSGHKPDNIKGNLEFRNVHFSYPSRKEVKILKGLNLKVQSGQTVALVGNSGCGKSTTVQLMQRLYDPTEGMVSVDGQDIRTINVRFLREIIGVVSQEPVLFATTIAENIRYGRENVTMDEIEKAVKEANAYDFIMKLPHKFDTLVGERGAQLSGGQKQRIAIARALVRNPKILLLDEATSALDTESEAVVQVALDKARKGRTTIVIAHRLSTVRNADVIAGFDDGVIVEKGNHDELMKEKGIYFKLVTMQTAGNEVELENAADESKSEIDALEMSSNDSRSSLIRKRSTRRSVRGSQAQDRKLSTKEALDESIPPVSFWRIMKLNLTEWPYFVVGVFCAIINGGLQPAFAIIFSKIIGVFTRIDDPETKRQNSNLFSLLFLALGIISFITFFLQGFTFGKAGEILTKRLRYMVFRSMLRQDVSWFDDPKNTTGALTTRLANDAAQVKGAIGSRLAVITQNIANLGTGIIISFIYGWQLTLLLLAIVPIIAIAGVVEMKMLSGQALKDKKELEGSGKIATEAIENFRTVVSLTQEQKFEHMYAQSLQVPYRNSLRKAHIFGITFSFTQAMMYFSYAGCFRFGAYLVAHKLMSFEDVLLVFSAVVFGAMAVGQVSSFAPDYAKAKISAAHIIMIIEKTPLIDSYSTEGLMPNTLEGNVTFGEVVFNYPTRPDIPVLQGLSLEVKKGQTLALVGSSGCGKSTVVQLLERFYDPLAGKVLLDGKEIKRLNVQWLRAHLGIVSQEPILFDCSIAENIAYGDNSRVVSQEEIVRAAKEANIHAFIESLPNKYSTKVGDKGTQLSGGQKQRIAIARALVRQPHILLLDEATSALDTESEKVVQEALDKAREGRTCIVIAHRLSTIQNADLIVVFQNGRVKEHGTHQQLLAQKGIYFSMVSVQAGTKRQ

Sequence of HCN4 (Q9Y3Q4 whole entry, species assumed): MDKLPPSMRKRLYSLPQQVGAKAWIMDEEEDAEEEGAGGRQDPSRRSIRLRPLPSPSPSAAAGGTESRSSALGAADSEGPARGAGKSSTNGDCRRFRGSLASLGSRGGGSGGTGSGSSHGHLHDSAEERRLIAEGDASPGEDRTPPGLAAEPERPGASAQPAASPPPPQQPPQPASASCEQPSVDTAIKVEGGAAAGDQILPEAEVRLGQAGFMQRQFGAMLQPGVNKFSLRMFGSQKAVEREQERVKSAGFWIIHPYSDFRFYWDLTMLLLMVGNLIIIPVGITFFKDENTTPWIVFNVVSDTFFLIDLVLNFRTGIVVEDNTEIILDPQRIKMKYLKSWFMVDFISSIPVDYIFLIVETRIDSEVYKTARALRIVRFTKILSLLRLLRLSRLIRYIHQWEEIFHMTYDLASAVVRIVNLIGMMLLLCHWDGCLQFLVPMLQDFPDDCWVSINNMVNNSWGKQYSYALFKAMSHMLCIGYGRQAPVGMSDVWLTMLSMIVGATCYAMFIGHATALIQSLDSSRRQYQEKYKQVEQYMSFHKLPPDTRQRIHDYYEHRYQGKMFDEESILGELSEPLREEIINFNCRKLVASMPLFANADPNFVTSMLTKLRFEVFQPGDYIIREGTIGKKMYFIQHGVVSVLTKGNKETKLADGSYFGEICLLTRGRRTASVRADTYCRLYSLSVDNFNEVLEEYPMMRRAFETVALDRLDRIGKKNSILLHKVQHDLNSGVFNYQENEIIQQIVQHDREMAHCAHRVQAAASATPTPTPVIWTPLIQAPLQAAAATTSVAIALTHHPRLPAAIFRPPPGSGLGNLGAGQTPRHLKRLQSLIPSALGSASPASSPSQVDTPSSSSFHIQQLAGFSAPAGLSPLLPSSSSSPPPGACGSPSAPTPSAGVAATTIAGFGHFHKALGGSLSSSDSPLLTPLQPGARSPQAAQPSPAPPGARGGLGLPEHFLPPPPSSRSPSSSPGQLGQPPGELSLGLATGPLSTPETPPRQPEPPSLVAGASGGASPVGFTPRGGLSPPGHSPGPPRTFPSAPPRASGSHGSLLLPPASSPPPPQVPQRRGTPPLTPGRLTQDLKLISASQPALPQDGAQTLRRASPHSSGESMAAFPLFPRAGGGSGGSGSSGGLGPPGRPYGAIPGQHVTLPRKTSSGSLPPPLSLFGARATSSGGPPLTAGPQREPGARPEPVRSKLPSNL
Sequence of hERG channel (Q12809 whole entry): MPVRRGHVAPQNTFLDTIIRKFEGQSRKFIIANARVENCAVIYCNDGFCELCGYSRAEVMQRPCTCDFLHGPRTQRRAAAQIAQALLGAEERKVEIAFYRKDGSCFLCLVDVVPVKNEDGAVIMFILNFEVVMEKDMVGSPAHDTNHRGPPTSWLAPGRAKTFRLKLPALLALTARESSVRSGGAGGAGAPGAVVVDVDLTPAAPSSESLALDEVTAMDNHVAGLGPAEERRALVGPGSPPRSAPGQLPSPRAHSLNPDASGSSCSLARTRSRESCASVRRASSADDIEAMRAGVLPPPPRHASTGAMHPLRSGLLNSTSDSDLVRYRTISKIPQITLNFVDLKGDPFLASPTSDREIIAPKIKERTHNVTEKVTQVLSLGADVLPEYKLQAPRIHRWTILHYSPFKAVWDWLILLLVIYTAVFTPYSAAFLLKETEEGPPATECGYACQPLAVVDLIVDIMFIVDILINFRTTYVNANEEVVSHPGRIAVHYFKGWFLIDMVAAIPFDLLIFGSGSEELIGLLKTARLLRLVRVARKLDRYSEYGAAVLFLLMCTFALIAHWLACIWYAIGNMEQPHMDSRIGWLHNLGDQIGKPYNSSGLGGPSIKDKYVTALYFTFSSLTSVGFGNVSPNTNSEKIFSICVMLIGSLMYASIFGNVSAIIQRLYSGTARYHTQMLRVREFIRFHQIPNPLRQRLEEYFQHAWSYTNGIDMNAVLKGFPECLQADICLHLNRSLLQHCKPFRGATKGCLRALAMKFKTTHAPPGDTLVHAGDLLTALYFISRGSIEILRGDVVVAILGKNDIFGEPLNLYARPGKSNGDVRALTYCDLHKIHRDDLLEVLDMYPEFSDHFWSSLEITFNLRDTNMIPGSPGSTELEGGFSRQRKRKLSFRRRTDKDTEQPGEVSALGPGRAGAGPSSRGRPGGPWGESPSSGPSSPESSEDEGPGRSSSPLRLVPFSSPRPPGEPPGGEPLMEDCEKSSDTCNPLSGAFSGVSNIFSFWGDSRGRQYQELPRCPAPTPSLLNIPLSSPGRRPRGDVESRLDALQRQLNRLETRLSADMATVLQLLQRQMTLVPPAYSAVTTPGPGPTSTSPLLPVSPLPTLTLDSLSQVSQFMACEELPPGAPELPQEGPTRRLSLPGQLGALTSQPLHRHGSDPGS
Sequence of HCN1 (O60741 whole entry, species assumed): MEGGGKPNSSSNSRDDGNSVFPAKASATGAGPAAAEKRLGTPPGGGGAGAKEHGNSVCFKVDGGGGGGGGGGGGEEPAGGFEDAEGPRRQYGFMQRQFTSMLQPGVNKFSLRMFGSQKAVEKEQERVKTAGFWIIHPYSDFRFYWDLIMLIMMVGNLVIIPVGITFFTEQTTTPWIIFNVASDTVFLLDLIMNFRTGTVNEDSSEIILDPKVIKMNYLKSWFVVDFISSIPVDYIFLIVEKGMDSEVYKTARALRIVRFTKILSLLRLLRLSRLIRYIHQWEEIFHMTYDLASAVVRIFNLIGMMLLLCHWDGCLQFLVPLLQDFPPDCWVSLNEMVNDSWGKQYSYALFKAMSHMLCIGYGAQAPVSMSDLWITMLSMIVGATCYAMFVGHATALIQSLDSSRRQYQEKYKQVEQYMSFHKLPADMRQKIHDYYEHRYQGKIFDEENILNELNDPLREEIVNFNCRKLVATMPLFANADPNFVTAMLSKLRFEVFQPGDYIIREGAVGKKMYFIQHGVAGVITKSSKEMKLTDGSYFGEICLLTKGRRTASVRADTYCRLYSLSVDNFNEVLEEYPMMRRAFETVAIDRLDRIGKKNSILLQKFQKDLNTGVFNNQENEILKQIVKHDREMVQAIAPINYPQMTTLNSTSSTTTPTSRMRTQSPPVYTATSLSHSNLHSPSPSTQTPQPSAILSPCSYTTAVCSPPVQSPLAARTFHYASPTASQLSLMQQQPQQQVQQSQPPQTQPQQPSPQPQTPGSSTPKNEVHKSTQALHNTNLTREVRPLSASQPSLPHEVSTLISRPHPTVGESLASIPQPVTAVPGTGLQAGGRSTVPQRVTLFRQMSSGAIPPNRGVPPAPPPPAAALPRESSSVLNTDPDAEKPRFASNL
Experimental for MDR1 (P-glycoprotein): Test compounds were added (10 μM, 0.1% DMSO final, n=2) to donor compartments of the Transwell plate assembly in assay buffer (Hanks balanced salt solution supplemented with 25 mM HEPES, adjusted to pH 7.4) for both apical to basolateral (A>B) and basolateral to apical (B>A) measurements. A parallel series of incubations were performed in the presence of the transporter inhibitor elacridar (5 μM) which was added to both compartments in the transwell plate. Incubations were performed at 37° C., with samples removed from both donor and acceptor chambers at T=0 and 1 hour for recovery assessment and compound analysed by mass spectrometry (LC-MS/MS), including an analytical internal standard.
Apparent permeability (Papp) values were determined from the relationship:
Where V is the volume of each Transwell compartment (apical 125 μL, basolateral 600 μL), and concentrations are the relative MS responses for compound (normalized to internal standard) in the donor chamber before incubation and acceptor chamber at the end of the incubation.
Area=area of cells exposed for drug transfer (0.33 cm2).
Efflux ratios (Papp B>A/Papp A>B) were calculated for each compound from the mean Papp values in each direction. […] The efflux ratios were also calculated in the same way from the runs carried out in the presence of the inhibitor. The net flux is the ratio of the efflux in the absence of inhibitor to that in the presence of inhibitor.
Lucifer Yellow (LY) was added to the apical buffer in all wells to assess viability of the cell layer.
Compound recovery from the wells was determined from MS responses (normalized to internal standard) in donor and acceptor chambers at the end of incubation compared to response in the donor chamber pre-incubation.
Experimental for hNav1.5: Solutions for recording Nav1.5 currents were:
Electrophysiological recordings were made from a human embryonic kidney (HEK) cell line stably expressing the full length hNav1.5. Population patch clamp measurements were made in the perforated patch clamp configuration (100 μg ml^−1 amphotericin) at room temperature (approx. 22° C.) using an IonWorks Quattro from Molecular Devices. […] Currents were first measured under control (pre-compound addition) conditions. […] Currents were measured from the depolarising step at the 15th pulse and referenced to the holding current.

As to `N#Cc1nc(C[C@H](N)c2ccccc2-c2noc3ccccc23)ccc1F` [Example 6, (S)-1-[2-(Benzo[d]isoxazol-3-yl)phenyl]-2-(6-cyano-5-fluoropyridine-2-yl)ethan-1-amine hydrochloride], the IC50 at HCN1 was 1800 nM; on HCN4, 8100 nM; at HCN2, 390 nM.

As for `CCc1ccc(C)c(C[C@H](N)c2ccccc2-c2noc3ccccc23)n1` [Example 9, (S)-1-[2-(Benzo[d]isoxazol-3-yl)phenyl]-2-(6-ethyl-3-methylpyridine-2-yl)ethan-1-amine hydrochloride], the values for the IC50 at HCN1, on HCN4 and on HCN2 were 370 nM, 1700 nM and 260 nM, respectively.

With `N#Cc1ccc2c(-c3ccccc3[C@@H](N)Cc3ccccn3)noc2c1` [Example 29, (S)-1-[2-(6-Cyanobenzo[d]isoxazol-3-yl)phenyl]-2-(pyridine-2-yl)ethan-1-amine], the results for the half-maximal inhibitory concentration (IC50) at HCN1, at HCN4 and at HCN2 were 8900 nM, more than 30000 nM and 4300 nM, respectively.

For `N[C@@H](Cc1ccccn1)c1ccccc1-c1noc2cc(CO)ccc12` [Example 30, (S)-1-[2-(6-Hyroxymethylbenzo[d]isoxazol-3-yl)phenyl]-2-(pyridine-2-yl)ethan-1-amine hydrochloride], the values for the IC50 on HCN1, on HCN4 and at HCN2 were 3000 nM, 12800 nM and 3000 nM, respectively.

Consider `N[C@@H](Cc1ncccc1F)c1ccccc1-c1noc2ccccc12` [Example 63, (S)-1-[2-(Benzo[d]isoxazol-3-yl)phenyl]-2-(3-fluoropyridin-2-yl)ethan-1-amine hydrochloride], for which the IC50 at HCN1 was 8000 nM; at HCN4 it was more than 30000 nM; at HCN2 it was 500 nM.

`N#Cc1ccc2c(-c3ccccc3[C@@H](N)Cc3cccc(C#N)n3)noc2c1` [Example 95, (S)-1-[2-(6-Cyanobenzo[d]isoxazol-3-yl)phenyl]-2-(6-cyanopyridine-2-yl)ethan-1-amine]: the IC50 is 2900 nM on hERG channel, more than 33000 nM against hNav1.5, more than 30000 nM at HCN4 and 1400 nM at HCN2. At MDR1 (P-glycoprotein), the efflux ratio at 1 h, 10 μM came to 4.5.

Turning to `CNc1cccc(C[C@H](N)c2ccccc2-c2noc3cc(C#N)ccc23)n1` [Example 97, (S)-1-[2-(6-Cyanobenzo[d]isoxazol-3-yl)phenyl]-2-(6-methylaminopyridine-2-yl)ethan-1-amine dihydrochloride], the IC50 at hERG channel is 540 nM; on hNav1.5, 8400 nM; on HCN4, 13300 nM; on HCN2, 2600 nM. The efflux ratio at 1 h, 10 μM at MDR1 (P-glycoprotein) stood at 12.2.

On to `N#Cc1ccc2c(-c3ccccc3[C@@H](N)Cc3cccc(OCCO)n3)noc2c1` [Example 99, (S)-1-[2-(6-Cyanobenzo[d]isoxazol-3-yl)phenyl]-2-[6-(2-hydroxyethoxyl)pyridine-2-yl]ethan-1-amine hydrochloride], for which the IC50 at hERG channel is 2100 nM; against hNav1.5, 18500 nM; on HCN4 it was more than 30000 nM; at HCN2, 2400 nM. For the same compound, on MDR1 (P-glycoprotein), the efflux ratio at 1 h, 10 μM is 78.5.

Take `N[C@@H](Cc1cccc(CCO)n1)c1ccccc1-c1noc2ccccc12` [Example 100, (S)-1-[2-(Benzo[d]isoxazol-3-yl)phenyl]-2-[6-(2-hydroxyethyl)pyridine-2-yl]ethan-1-amine hydrochloride]: the IC50 on hERG channel is 12800 nM; on hNav1.5, 2800 nM; at HCN4, more than 30000 nM; at HCN2, 2300 nM. At MDR1 (P-glycoprotein), the efflux ratio at 1 h, 10 μM stood at 8.7.

Consider `N[C@@H](Cc1ccccn1)c1c(F)cccc1-c1noc2ccccc12` [Example 111, (S)-1-[2-(Benzo[d]isoxazol-3-yl)-6-fluorophenyl]-2-(pyridin-2-yl)ethan-1-amine hydrochloride], for which the IC50 on hERG channel was 7400 nM; against hNav1.5 it was 27900 nM; on HCN4, more than 30000 nM; on HCN2, 1800 nM. Moreover, the efflux ratio at 1 h, 10 μM at MDR1 (P-glycoprotein) was 1.
